Results: patent publication US20150328191A1, “USE OF PIDOTIMOD TO TREAT PSORIASIS” (POLICHEM S.A., priority 2012, published 2015)
Peptide text beside a SMILES is read from it.

System: psoriatic patients (mild psoriasis)
Assay: Evaluation of pidotimod in psoriatic patients by PASI evaluation; safety also evaluated
Assay type: in vivo, human
Conditions: 800 mg daily oral, 12 weeks
Method: An evaluation of the activity of pidotimod was tested on psoriatic patients, in order to assess the efficacy in terms of improvement of the pathology by means of PASI evaluation. The safety of the treatment was also evaluated. The study was performed in 5 patients (3 males and 2 females, aged between 31-53, mean=42) with a clinical diagnosis of mild psoriasis of at least 6 months. […] The body surface area involvement at the baseline was ≦10% with a PASI value ≦10.
The study product was taken with the composition of the Example 6 at a dosage of two oral vials daily, i.e. 800 mg daily of the active ingredient, taken far from mealtimes.
During the trial, the following visits were performed: • baseline—T0 (before the product use) • intermediate visit—T6 (after 6 weeks of treatment) • final visit—T12 (after 12 weeks of treatment)
No relevant event, which may have interfered to the test results, occurred during the study period.
The efficacy of the product was expressed by mean of values of PASI evaluation, assessing the PASI at the baseline and at the intermediate visit and the final one.

## O=C1CC[C@@H](C(=O)N2CSC[C@H]2C(=O)O)N1 [pidotimod, (4R)-3-(5-oxo-L-prolyl)-1,3-thiazolidine-4-carboxylic acid] (HELM PEPTIDE1{[Glp].[O=C(O)[C@@H]1CSCN1[*:1]]}$$$$V2.0)
5 patients
  Side effects: no side effects were reported
  Tolerability of the treatment: very well tolerated
5 patients, statistically significant decrease
  Student t test p for decrease of the PASI value at T12 (end of treatment) vs. T0 (baseline): < 0.05
All 5 patients
  Improvement in the clinical evidences of the illness: important improvement
